Test results as given in US20060188938A1, “Compounds for inhibiting beta-amyloid production and methods of identifying the compounds” (priority 2005, published 2006).

These compounds were tested on β-amyloid production by 7W WT APP751 CHO cells (assay: Screening of dihydropyridine compounds (Maybridge), Aβ1-40 and Aβ1-42 ELISA (Example 2)). Conditions: 30 μM, 24 hours (FIGS. 5A-B).
Type: cell-based, Chinese hamster
Procedure: Dihydropyridine compounds were obtained from Maybridge (England). Each compound was dissolved in DMSO. 7W WT APP751 CHO cells overexpressing APP751 were plated into 96-well culture plates in 200 μL of culture medium. Each compound from the library was added to confluent cells to a final concentration of 30 μM. After 24 hours of treatment, culture medium was collected and dissolved 10-fold and 2-fold for measuring the level of Aβ1-40 and Aβ1-42, respectively. Aβ1-40 and Aβ1-42 were determined using commercially available ELISAs (Biosource, CA), following the recommendations of the manufacturer.

Compound | concentration of Aβ1-40 compared to controls | concentration of Aβ1-42 compared to controls | concentration of total β-amyloid (Aβ1-40+Aβ1-42) compared to controls
CCOC(=O)C1=C(C)NC(C)=C(C(=O)OCC)C1c1ccc(Cl)cc1 [BTB 14328, diethyl 4-(4-chlorophenyl)-2,6-dimethyl-1,4-dihydropyridine-3,5-dicarboxylate] | significantly decreased | significantly decreased | significantly decreased
CCOC(=O)C1=C(C)NC(C)=C(C(=O)OCC)C1c1ccc(-c2cc(C(F)(F)F)cc(C(F)(F)F)c2)o1 [CD 04170, diethyl 4-{5-[3,5-di(trifluoromethyl)phenyl]-2-furyl}-2,6-dimethyl-1,4-dihydro-pyridine-3,5-dicarboxylate] | significantly decreased | significantly decreased | significantly decreased
O=C1C=C(c2ccccc2)CN(C2CCCCC2)C1=O [HTS 01512, 1-cyclohexyl-5-phenyl-1,6-dihydro-2,3-pyridinedione] | significantly decreased | significantly decreased | significantly decreased
N#Cc1c(-c2cn(-c3ccccc3)nc2-c2ccccc2)cc(-c2ccccc2)[nH]c1=O [HTS 07578, 4-(1,3-diphenyl-1H-pyrazol-4-yl)-2-oxo-6-phenyl-1,2-dihydro-3-pyridinecarbonitrile] | significantly decreased | significantly decreased | significantly decreased
N#Cc1c(-c2cccs2)cc(-c2ccccc2)[nH]c1=O [HTS 10306, 2-oxo-6-phenyl-4-(2-thienyl)-1,2-dihydro-3-pyridinecarbonitrile] | significantly decreased | significantly decreased | significantly decreased
CCOC(=O)C1=C(C)NC(C)=C(C(=O)OCC)C1c1ccc(Br)cc1 [JFD 01209, diethyl 4-(4-bromophenyl)-2,6-dimethyl-1,4-dihydropyridine-3,5-dicarboxylate] | significantly decreased | significantly decreased | significantly decreased
CCOC(=O)C1=C(C)NC(C)=C(C(=O)OCC)C1c1ccc([N+](=O)[O-])cc1 [JFD 03266, diethyl 2,6-dimethyl-4-(4-nitrophenyl)-1,4-dihydropyridine-3,5-dicarboxylate] | significantly decreased | – | significantly decreased
CCOC(=O)C1=C(C)NC(C)=C(C(=O)OCC)C1c1cccc(Cl)c1 [JFD 03274, diethyl 4-(3-chlorophenyl)-2,6-dimethyl-1,4-dihydropyridine-3,5-dicarboxylate] | significantly decreased | – | significantly decreased
CCOC(=O)C1=C(C)NC(C)=C(C(=O)OCC)C1c1ccc(C)cc1 [JFD 03282, diethyl 2,6-dimethyl-4-(4-methylphenyl)-1,4-dihydropyridine-3,5-dicarboxylate] | significantly decreased | significantly decreased | significantly decreased
CC1=C(C#N)C(c2ccc(Cl)c(Cl)c2)C(C#N)=C(C)N1 [JFD 03292, 4-(3,4-dichlorophenyl)-2,6-dimethyl-1,4-dihydropyridine-3,5-dicarbonitrile] | significantly decreased | – | significantly decreased
COC(=O)C1=C(C)NC(C)=C(C(=O)OC)C1c1ccc(Cl)c(Cl)c1 [JFD 03293, dimethyl 4-(3,4-dichlorophenyl)-2,6-dimethyl-1,4-dihydropyridine-3,5-dicarboxylate] | significantly decreased | significantly decreased | significantly decreased
CCOC(=O)C1=C(C)NC(C)=C(C(=O)OCC)C1c1ccc(Cl)c(Cl)c1 [JFD 03294, diethyl 4-(3,4-dichlorophenyl)-2,6-dimethyl-1,4-dihydropyridine-3,5-dicarboxylate] | significantly decreased | significantly decreased | significantly decreased
CCOC(=O)C1=C(C)NC(C)=C(C(=O)OCC)C1c1ccccc1Cl [JFD 03305, diethyl 4-(2-chlorophenyl)-2,6-dimethyl-1,4-dihydropyridine-3,5-dicarboxylate] | significantly decreased | significantly decreased | significantly decreased
CCOC(=O)C1=C(C)NC(C)=C(C(=O)OCC)C1c1ccccc1[N+](=O)[O-] [JFD 03311, diethyl 2,6-dimethyl-4-(2-nitrophenyl)-1,4-dihydropyridine-3,5-dicarboxylate] | significantly decreased | – | significantly decreased
CCOC(=O)C1=C(C)NC(C)=C(C(=O)OCC)C1c1ccc(F)cc1 [JFD 03318, diethyl 4-(4-fluorophenyl)-2,6-dimethyl-1,4-dihydropyridine-3,5-dicarboxylate] | significantly decreased | significantly decreased | significantly decreased
O=C1CC(c2ccccc2)CC(=O)N1c1ccc(Oc2ccc(Cl)cc2)cc1 [PD 00463, 1-[4-(4-chlorophenoxy)phenyl]-4-phenyldihydropyridine-2,6(1H,3H)-dione] | significantly decreased | significantly decreased | significantly decreased
CCOC(=O)C1=C(C)NC(C)=C(C(=O)OCC)C1c1ccc(Cl)cc1Cl [RJC 03403, diethyl 4-(2,4-dichlorophenyl)-2,6-dimethyl-1,4-dihydro-3,5-pyridinedicarboxylate] | significantly decreased | significantly decreased | significantly decreased
